Source: patent publication US5374733A, “Sweetening agent derived from L-aspartic or L-glutamic acid” (priority 1989, dated 1994)

Test: not given
Conditions: Table 2, EP-A-0.338.946; sucrose concentration not stated; cited from earlier work

Structure (SMILES) | SP
CCC(CC)CN[C@@H](CC(=O)O)C(=O)Nc1ccc(C#N)cc1 [(CH3 CH2)2 CHCH2/1/4-CN--C6 H4] | 200
CC(C)CCN[C@@H](CC(=O)O)C(=O)Nc1ccc(C#N)cc1 [(CH3)2 CHCH2 CH2/1/4-CN--C6 H4] | 100
CC(C)CCN[C@@H](CCC(=O)O)C(=O)Nc1ccc(C#N)cc1 [(CH3)2 CHCH2 CH2/2/4-CN--C6 H4] | 800
N#Cc1ccc(NC(=O)[C@H](CCC(=O)O)NCCCc2ccccc2)cc1 [C6 H5 CH2 CH2 CH2/2/4-CN--C6 H4] | 800
N#Cc1ccc(NC(=O)[C@H](CC(=O)O)NCCc2ccccc2)cc1 [C6 H5 CH2 CH2/1/4-CN--C6 H4] | 300
N#Cc1ccc(NC(=O)[C@H](CCC(=O)O)NCCc2ccccc2)cc1 [C6 H5 CH2 CH2/2/4-CN--C6 H4] | 300

Test: Sweetening potency: taste comparison by a team of eight experienced people with a sucrose reference solution
Conditions: Table 3; weight basis, compared with a 2% aqueous solution of sucrose
Description: The sweetening potency of the compounds described in the Examples was evaluated by a team of eight experienced people. This is done by comparing the taste of the compounds, in aqueous solution at variable concentrations, with a 2%, 5 % or 10 % reference solution of sucrose. The sweetening potency of the test compound compared with sucrose then corresponds to the weight ratio between the compound and sucrose for equal sweetening intensity, i.e. when the sweet tastes of the solution of the test compound and the reference solution of sucrose are considered, by a majority of people, to have the same sweetening intensity.
Summary Table 3 below gives, by way of examples, a list of a few compounds obtained by experimental protocols similar to those described above, which those skilled in the art will easily find, together with their relative sweetening potency (SP), evaluated on a weight basis, compared with a 2% aqueous solution of sucrose. When the groups R1, R2 and R3 are different, the configuration of the asymmetric carbon to which they are bonded (carbon marked with an asterisk) is designated according to the conventional rules of stereochemistry using the R/S system: R, S or, when both configurations coexist in the same compound, RS.

Structure (SMILES) | SP (relative sweetening potency)
CCC(C(=O)N[C@@H](CCC(=O)O)C(=O)Nc1ccc(C#N)cc1)c1ccccc1 (stereo partly drawn) [C2 H5/H/C6 H5/RS/2/CH/CH/CN] | 2700
CCCCC(CC)C(=O)N[C@@H](CCC(=O)O)C(=O)Nc1ccc(C#N)cc1 (stereo partly drawn) [C2 H5/H/CH3 (CH2)3/RS/2/CH/CH/CN] | 5000
N#Cc1ccc(NC(=O)[C@H](CCC(=O)O)NC(=O)C(c2ccccc2)c2ccccc2)cc1 [C6 H5/H/C6 H5/2/CH/CH/CN] | 250
CO[C@](C(=O)N[C@@H](CCC(=O)O)C(=O)Nc1ccc(C#N)cc1)(c1ccccc1)C(F)(F)F [CF3/CH3 O/C6 H5/S/2/CH/CH/CN] | 600
N#Cc1ccc(NC(=O)[C@H](CCC(=O)O)NC(=O)C2(c3ccccc3)CCCC2)cc1 [CH2 (CH2)2 CH2/C6 H5/2/CH/CH/CN] | 2000
N#Cc1ccc(NC(=O)[C@H](CCC(=O)O)NC(=O)C2(c3ccccc3)CCCC2)cn1 [CH2 (CH2)2 CH2/C6 H5/2/N/CH/CN] | 3000
N#Cc1ccc(NC(=O)[C@H](CC(=O)O)NC(=O)C2(c3ccccc3)CC2)cc1 [CH2 CH2/C6 H5/1/CH/CH/CN] | 1000
N#Cc1ccc(NC(=O)[C@H](CCC(=O)O)NC(=O)C2(c3ccccc3)CC2)cc1 [CH2 CH2/C6 H5/2/CH/CH/CN] | 2500
CO[C@@H](C(=O)N[C@@H](CCC(=O)O)C(=O)Nc1ccc(C#N)nc1)c1ccccc1 [CH3 O/H/C6 H5/R/2/N/CH/CN] | 11000
COC(C(=O)N[C@@H](CCC(=O)O)C(=O)Nc1ccc(C#N)cc1)c1ccccc1 (stereo partly drawn) [CH3 O/H/C6 H5/RS/2/CH/CH/CN] | 2300
CO[C@H](C(=O)N[C@@H](CCC(=O)O)C(=O)Nc1ccc(C#N)nc1)c1ccccc1 [CH3 O/H/C6 H5/S/2/N/CH/CN] | 3000
CCCCC(OC)C(=O)N[C@@H](CCC(=O)O)C(=O)Nc1ccc(C#N)nc1 (stereo partly drawn) [CH3 O/H/CH3 (CH2)3/RS/2/N/CH/CN] | 2000
CC(C)CCC(C)(C)C(=O)N[C@@H](CCC(=O)O)C(=O)Nc1ccc(C#N)cc1 [CH3/CH3/(CH3)2 CH(CH2)2/2/CH/CH/CN] | 10000
C=CCC(C)(C)C(=O)N[C@@H](CCC(=O)O)C(=O)Nc1ccc(C#N)cc1 [CH3/CH3/CH2 CHCH2/2/CH/CH/CN] | 500
CCCCC(C)(C)C(=O)N[C@@H](CCC(=O)O)C(=O)Nc1ccc(C#N)cc1 [CH3/CH3/CH3 (CH2)3/2/CH/CH/CN] | 11000
CCCCC(C)(C)C(=O)N[C@@H](CCC(=O)O)C(=O)Nc1ccc(Cl)nc1 [CH3/CH3/CH3 (CH2)3/2/N/CH/Cl] | 600
CCCCCC(C)(C)C(=O)N[C@@H](CCC(=O)O)C(=O)Nc1ccc(C#N)nc1 [CH3/CH3/CH3 (CH2) 4/2/N/CH/CN] | 3000
CC(OC1C(C)CCCC1C)C(=O)N[C@@H](CCC(=O)O)C(=O)Nc1ccc(C#N)cc1 (stereo partly drawn) [CH3/H/(2,6-diMe)-c-C6 H9 O/RS/2/CH/CH/CN] | 1000
CC(C)CCC(C)C(=O)N[C@@H](CCC(=O)O)C(=O)Nc1ccc(C#N)cc1 (stereo partly drawn) [CH3/H/(CH3)2 CH(CH2)2/RS/2/CH/CH/CN] | 6000
C[C@@H](Oc1ccccc1)C(=O)N[C@@H](CC(=O)O)C(=O)Nc1ccc(C#N)cc1 [CH3/H/C6 H5 O/R/1/CH/CH/CN] | 18000

Structure (SMILES) | SP (relative sweetening potency)
CC(Oc1ccccc1)C(=O)N[C@@H](CCC(=O)O)C(=O)Nc1ccc(C#N)cc1 (stereo partly drawn) [CH3/H/C6 H5 O/RS/2/CH/CH/CN] | 4000
CC(Oc1ccccc1)C(=O)N[C@@H](CCC(=O)O)C(=O)Nc1ccc(C#N)nc1 (stereo partly drawn) [CH3/H/C6 H5 O/RS/2/N/CH/CN] | 13000
C[C@@H](C(=O)N[C@@H](CCC(=O)O)C(=O)Nc1ccc(C#N)cc1)c1ccccc1 [CH3/H/C6 H5/R/2/CH/CH/CN] | 1300
C[C@@H](C(=O)N[C@@H](CCC(=O)O)C(=O)Nc1ccc(C#N)nc1)c1ccccc1 [CH3/H/C6 H5/R/2/N/CH/CN] | 2500
C[C@H](C(=O)N[C@@H](CCC(=O)O)C(=O)Nc1ccc(C#N)cc1)c1ccccc1 [CH3/H/C6 H5/S/2/CH/CH/CN] | 1500
C[C@H](C(=O)N[C@@H](CCC(=O)O)C(=O)Nc1ccc(C#N)nc1)c1ccccc1 [CH3/H/C6 H5/S/2/N/CH/CN] | 4000
CCCO[C@H](C)C(=O)N[C@@H](CCC(=O)O)C(=O)Nc1ccc(C#N)cc1 [CH3/H/CH3 (CH2)2 O/R/2/CH/CH/CN] | 400
CCCO[C@@H](C)C(=O)N[C@@H](CCC(=O)O)C(=O)Nc1ccc(C#N)cc1 [CH3/H/CH3 (CH2)2 O/S/2/CH/CH/CN] | 200
CCC[C@@H](C)C(=O)N[C@@H](CCC(=O)O)C(=O)Nc1ccc(C#N)cc1 [CH3/H/CH3 (CH2)2/R/2/CH/CH/CN] | 500
CCC[C@H](C)C(=O)N[C@@H](CCC(=O)O)C(=O)Nc1ccc(C#N)cc1 [CH3/H/CH3 (CH2)2/S/2/CH/CH/CN] | 2800
CCCC[C@@H](C)C(=O)N[C@@H](CCC(=O)O)C(=O)Nc1ccc(C#N)cc1 [CH3/H/CH3 (CH2)3/R/2/CH/CH/CN] | 3000
CCCC[C@@H](C)C(=O)N[C@@H](CCC(=O)O)C(=O)Nc1ccc(C#N)nc1 [CH3/H/CH3 (CH2)3/R/2/N/CH/CN] | 2000
CCCCC(C)C(=O)N[C@@H](CC(=O)O)C(=O)Nc1ccc(C#N)cc1 (stereo partly drawn) [CH3/H/CH3 (CH2)3/RS/1/CH/CH/CN] | 1500
CCCC[C@H](C)C(=O)N[C@@H](CCC(=O)O)C(=O)Nc1ccc(C(C)=O)cc1 [CH3/H/CH3 (CH2)3/S/2/CH/CH/COCH3] | 300
CCCC[C@H](C)C(=O)N[C@@H](CCC(=O)O)C(=O)Nc1ccc(C(N)=O)cc1 [CH3/H/CH3 (CH2)3/S/2/CH/CH/CONH2] | 700
CCCC[C@H](C)C(=O)N[C@@H](CCC(=O)O)C(=O)Nc1cnc(C#N)nc1 [CH3/H/CH3 (CH2)3/S/2/N/N/CN] | 10000
CCCCCC(C)C(=O)N[C@@H](CCC(=O)O)C(=O)Nc1ccc(C#N)cc1 (stereo partly drawn) [CH3/H/CH3 (CH2)4/RS/2/CH/CH/CN] | 1000
CC(C(=O)N[C@@H](CCC(=O)O)C(=O)Nc1ccc(C#N)cc1)C1CCCCC1 (stereo partly drawn) [CH3/H/c-C6 H11/RS/2/CH/CH/CN] | 1000
N#Cc1ccc(NC(=O)[C@H](CCC(=O)O)NC(=O)C(Cl)c2ccccc2)cc1 (stereo partly drawn) [Cl/H/C6 H5/RS/2/CH/CH/CN] | 2200
